How the values were obtained:
Type in all cases: cell-based, human
PSA mRNA [1] = experiment: PSA expression in LNCaP cells (complete, CSS+DHT medium); conditions: for Percent inhibition of PSA expression in LNCaP cells cultured in CSS + DHT medium: CSS + DHT (1 nM) medium, 48 hrs; for Percent inhibition of PSA expression in LNCaP cells cultured in complete medium: 48 hours
In short: (§1)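 LNCaP cells treated with antisense oligonucleotides, ISIS 549148 as negative control; AR, PSA and TMPRSS2 RNA measured after 48 h. Complete medium used 1,000 cells/well; stripped-serum condition used 2,000 cells/well in phenol red-free RPMI with 5% charcoal-stripped serum, with 1 nM DHT (final) added 4 h after treatment.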

PSA mRNA [2] = experiment: PSA expression in 22RV1 cells; conditions: RNAiMax, 48 hrs
In short: (§2)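 In 22RV1 cells, full-length AR, AR-V7, PSA and TMPRSS2 RNA measured after 48 h compound incubation. Complete-medium format used 1,000 cells/well; CSS+DHT format used 2,000 cells/well cultured 16 h in CSS medium, with 1 nM DHT added after 4 h.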

C4-2B cells = experiment: C4-2B cell proliferation (complete or CSS+DHT medium; Example 30); conditions: 5 days; for Proliferation (% untreated control): C4-2B cells
Method: After a treatment period of 5 days in complete medium or CSS+1 nM DHT medium, the proliferative capacity of the cancer cells was measured with using CellTiter 96® AQueous One or CellTiter-Glo® Solution Cell Proliferation kit (Promega), following the manufacturer's instructions.

TMPRSS2 mRNA [3] = experiment: TMPRSS2 expression in LNCaP cells (complete, CSS+DHT medium); conditions: for Percent inhibition of TMPRSS2 expression in LNCaP cells cultured in CSS + DHT medium: CSS + DHT (1 nM) medium, 48 hrs; for Percent inhibition of TMPRSS2 expression in LNCaP cells cultured in complete medium: 48 hours
In short: as §1

22RV1 cells = experiment: 22RV1 cell proliferation with/without DHT (MTT); conditions: 5 days; for Percent inhibition of 22RV1 cell proliferation: RNAiMAX
Method: 22RV1cells were plated at 1,500 cells per well. […] Separate sets of cells, also treated with each of the antisense oligonucleotides, were treated with DHT added on day 1 at a final concentration of 1 nM. After a treatment period of 5 days, the proliferative ability of the cancer cells was measured using the standard MTT assay. Results are presented in Table 69 as percent inhibition of proliferation, relative to non-treated cells.

full length AR mRNA = experiment: Full-length AR RNA in VCaP cells (complete, CSS+DHT medium); conditions: RNAiMax, 48 hrs
Method: Cells were plated at 10,000 cells per well. […] After an incubation period of 48 hrs, RNA levels of full length AR, the V7 variant, PSA and TMPRSS2 were measured.
After an incubation period of 48 hrs, RNA levels of full length AR, the V7 variant, PSA and TMPRSS2 were measured. The data is presented in Tables 108 expressed as percent expression of gene levels compared to the untreated control.
Cells were plated at 15,000 cells per well and cultured in CSS media for 16 hours. […] After 4 hrs, 1 nM DHT was added. […] After an incubation period of 48 hrs, RNA levels of AR, PSA and TMPRSS2 were measured.

TMPRSS2 mRNA [4] = experiment: TMPRSS2 expression in 22RV1 cells; conditions: RNAiMax, 48 hrs
In short: as §2

C4-2 cells = experiment: C4-2 cell proliferation (complete or CSS+DHT medium); conditions: 5 days; for Proliferation (% untreated control): C4-2 cells
Method: After a treatment period of 5 days in complete medium or CSS+1 nM DHT medium, the proliferative capacity of the cancer cells was measured with using CellTiter 96® AQueous One Solution or CellTiter-Glo® Cell Proliferation kit (Promega), following the manufacturer's instructions. […] The proliferative capacity of cells cultured in CSS medium without DHT is 17% of untreated control levels.

[5] = complete medium or CSS+1 nM DHT

With “TTGATTTAATGGTTGC [ISIS 560131] (MOE and (S)-cEt gapmer chemistry, further chemistry not given here) [targets intron 1]” the “Percent inhibition of PSA expression in LNCaP cells cultured in CSS + DHT medium” value (PSA mRNA [1]; 0.04 μM) was 10%, the “Percent inhibition of PSA expression in LNCaP cells cultured in CSS + DHT medium” value (PSA mRNA [1]; 0.2 μM) was 21% and the “Percent inhibition of PSA expression in LNCaP cells cultured in CSS + DHT medium” value (PSA mRNA [1]; 1 μM) was 21%. For the same sequence, the “Percent inhibition of PSA expression in LNCaP cells cultured in CSS + DHT medium” value (PSA mRNA [1]; 5.0 μM) was 72%, the “Percent inhibition of PSA expression in LNCaP cells cultured in complete medium” value (PSA mRNA [1]; 0.04 μM) was 0% and the “Percent inhibition of PSA expression in LNCaP cells cultured in complete medium” value (PSA mRNA [1]; 0.2 μM) was 60%. The “Percent inhibition of PSA expression in LNCaP cells cultured in complete medium” value (PSA mRNA [1]; 1 μM) was 87%, the “Percent inhibition of PSA expression in LNCaP cells cultured in complete medium” value (PSA mRNA [1]; 5.0 μM) was 90% and the “Percent inhibition of PSA expression” value (PSA mRNA [2]; CSS + DHT medium, 1.34 nM) was 3%. The “Percent inhibition of PSA expression” value (PSA mRNA [2]; CSS + DHT medium, 4.0 nM) was 50%, the “Percent inhibition of PSA expression” value (PSA mRNA [2]; CSS + DHT medium, 13.4 nM) was 66% and the “Percent inhibition of PSA expression” value (PSA mRNA [2]; complete medium, 1.34 nM) was 10%. For the same sequence, the “Percent inhibition of PSA expression” value (PSA mRNA [2]; complete medium, 4.0 nM) was 20%, the “Percent inhibition of PSA expression” value (PSA mRNA [2]; complete medium, 13.4 nM) was 27% and the “Percent inhibition of PSA expression” value (PSA mRNA [2]; complete medium, 40 nM) was 36%. The “Proliferation (% untreated control)” value (C4-2B cells; CSS + DHT medium, 0.04 μM) was 111 % untreated control, the “Proliferation (% untreated control)” value (C4-2B cells; CSS + DHT medium, 0.2 μM) was 75 % untreated control and the “Proliferation (% untreated control)” value (C4-2B cells; CSS + DHT medium, 1 μM) was 49 % untreated control. The “Proliferation (% untreated control)” value (C4-2B cells; CSS + DHT medium, 5.0 μM) was 40 % untreated control, the “Proliferation (% untreated control)” value (C4-2B cells; complete medium, 0.04 μM) was 93 % untreated control and the “Proliferation (% untreated control)” value (C4-2B cells; complete medium, 0.2 μM) was 50 % untreated control. The “Proliferation (% untreated control)” value (C4-2B cells; complete medium, 1 μM) was 50 % untreated control, the “Proliferation (% untreated control)” value (C4-2B cells; complete medium, 5.0 μM) was 41 % untreated control and the “proliferation of C4-2B cells” value (C4-2B cells; [5]) was “reduced proliferation of the cells in a dose dependent compared to the control”. The “Percent inhibition of TMPRSS2 expression in LNCaP cells cultured in CSS + DHT medium” value (TMPRSS2 mRNA [3]; 0.04 μM) was 6%, the “Percent inhibition of TMPRSS2 expression in LNCaP cells cultured in CSS + DHT medium” value (TMPRSS2 mRNA [3]; 0.2 μM) was 11% and the “Percent inhibition of TMPRSS2 expression in LNCaP cells cultured in CSS + DHT medium” value (TMPRSS2 mRNA [3]; 1 μM) was 26%. For the same sequence, the “Percent inhibition of TMPRSS2 expression in LNCaP cells cultured in CSS + DHT medium” value (TMPRSS2 mRNA [3]; 5.0 μM) was 64%, the “Percent inhibition of TMPRSS2 expression in LNCaP cells cultured in complete medium” value (TMPRSS2 mRNA [3]; 0.04 μM) was 0% and the “Percent inhibition of TMPRSS2 expression in LNCaP cells cultured in complete medium” value (TMPRSS2 mRNA [3]; 0.2 μM) was 25%. For the same sequence, the “Percent inhibition of TMPRSS2 expression in LNCaP cells cultured in complete medium” value (TMPRSS2 mRNA [3]; 1 μM) was 50%, the “Percent inhibition of TMPRSS2 expression in LNCaP cells cultured in complete medium” value (TMPRSS2 mRNA [3]; 5.0 μM) was 51% and the “Percent inhibition of 22RV1 cell proliferation” value (22RV1 cells; +DHT (1 nM), ASO 1.34 nM) was 0%. The “Percent inhibition of 22RV1 cell proliferation” value (22RV1 cells; +DHT (1 nM), ASO 4.0 nM) was 1%, the “Percent inhibition of 22RV1 cell proliferation” value (22RV1 cells; +DHT (1 nM), ASO 13.4 nM) was 13% and the “Percent inhibition of 22RV1 cell proliferation” value (22RV1 cells; +DHT (1 nM), ASO 40.0 nM) was 34%. The 22RV1 cell proliferation (22RV1 cells; with or without 1 nM DHT) was “significantly inhibited prostate cancer cell proliferation even in the presence of AR activator, DHT, compared to the control”, the “Percent inhibition of 22RV1 cell proliferation” value (22RV1 cells; −DHT, ASO 1.34 nM) was 0% and the “Percent inhibition of 22RV1 cell proliferation” value (22RV1 cells; −DHT, ASO 4.0 nM) was 2%. The “Percent inhibition of 22RV1 cell proliferation” value (22RV1 cells; −DHT, ASO 13.4 nM) was 29%, the “Percent inhibition of 22RV1 cell proliferation” value (22RV1 cells; −DHT, ASO 40.0 nM) was 54% and the “Percent inhibition of full-length AR” value (full length AR mRNA; CSS medium, 1.34 nM) was 12%. For the same sequence, the “Percent inhibition of full-length AR” value (full length AR mRNA; CSS medium, 4.0 nM) was 16%, the “Percent inhibition of full-length AR” value (full length AR mRNA; CSS medium, 13.4 nM) was 37% and the “Percent inhibition of full-length AR” value (full length AR mRNA; CSS medium, 40 nM) was 38%. For the same sequence, the “Percent inhibition of full-length AR” value (full length AR mRNA; complete medium, 1.34 nM) was 0%, the “Percent inhibition of full-length AR” value (full length AR mRNA; complete medium, 4.0 nM) was 59% and the “Percent inhibition of full-length AR” value (full length AR mRNA; complete medium, 13.4 nM) was 77%. The “Percent inhibition of full-length AR” value (full length AR mRNA; complete medium, 40 nM) was 84%, the “Percent inhibition of TMPRSS2 expression” value (TMPRSS2 mRNA [4]; CSS + DHT medium, 1.34 nM) was 39% and the “Percent inhibition of TMPRSS2 expression” value (TMPRSS2 mRNA [4]; CSS + DHT medium, 4.0 nM) was 50%. For the same sequence, the “Percent inhibition of TMPRSS2 expression” value (TMPRSS2 mRNA [4]; CSS + DHT medium, 13.4 nM) was 59%, the “Percent inhibition of TMPRSS2 expression” value (TMPRSS2 mRNA [4]; complete medium, 1.34 nM) was 7% and the “Percent inhibition of TMPRSS2 expression” value (TMPRSS2 mRNA [4]; complete medium, 4.0 nM) was 3%. The “Percent inhibition of TMPRSS2 expression” value (TMPRSS2 mRNA [4]; complete medium, 13.4 nM) was 19%, the “Percent inhibition of TMPRSS2 expression” value (TMPRSS2 mRNA [4]; complete medium, 40 nM) was 32% and the “Proliferation (% untreated control)” value (C4-2 cells; CSS + DHT medium, 0.04 μM) was 106 % untreated control. The “Proliferation (% untreated control)” value (C4-2 cells; CSS + DHT medium, 0.2 μM) was 94 % untreated control, the “Proliferation (% untreated control)” value (C4-2 cells; CSS + DHT medium, 1 μM) was 47 % untreated control and the “Proliferation (% untreated control)” value (C4-2 cells; CSS + DHT medium, 5.0 μM) was 31 % untreated control. For the same sequence, the “Proliferation (% untreated control)” value (C4-2 cells; complete medium, 0.04 μM) was 104 % untreated control, the “Proliferation (% untreated control)” value (C4-2 cells; complete medium, 0.2 μM) was 82 % untreated control and the “Proliferation (% untreated control)” value (C4-2 cells; complete medium, 1 μM) was 70 % untreated control. For the same sequence, the “Proliferation (% untreated control)” value (C4-2 cells; complete medium, 5.0 μM) was 51 % untreated control and the “proliferation of C4-2 cells” value (C4-2 cells; [5]) was “reduced proliferation of the cells in a dose dependent manner compared to the control”.

Reference: patent USRE48461E1, “Modulation of androgen receptor expression” (Ionis Pharmaceuticals, Inc., priority 2012, dated 2021)
